One series has as its target LdGDP-MP (Leishmania donovani, UniProt E9BG32). In words: biochemical. As to conditions: Man-1-P 10-100 µM, GTP 100 µM. Here is the method:
(§1) GDP-MP catalyzes the following reaction: Man‐1‐P+GTP→GDP−Mannose+Pyrophosphate The reaction media were buffered at pH optima and contained optimal concentrations of Man-1-P, GTP, GDP-MP and Mg^2+ determined for each purified GDP-MP (Fig. 2d), supplemented with DTT (1 mM). Inorganic pyrophosphatase, which hydrolyses the inorganic pyrophosphates generated by the GDP-MPs in inorganic phosphates, was added at 0.1 U/ml (Sigma-Aldrich). Inorganic pyrophosphatase was added in excess to the reaction medium in order to minimize the probability that the putative inhibitors of GDP-MPs interfere with this enzyme. […] The quantity of inorganic phosphate generated, representing GDP-MP activity, was determined by measuring OD650nm (Lab systems Multiskan MS). The molar extinction coefficient ε of the end product detected was determined by measuring OD650nm with a range of inorganic phosphate concentrations diluted in the revelation buffer and was calculated at 27207 M^−1 cm^−1 (Supplementary Fig. S2). The kinetic constants K m, V m and k cat were determined by non linear regression using GraphPad Prism 6.0.
(§2) Enzyme activity was measured as described above in the presence of 100 µM of compounds and the percentage of inhibition was calculated in reference to untreated enzyme. […]

Another series has as its target T1, hGDP-MP (Homo sapiens, UniProt Q9Y5P6).
T1 construct: made in house; host or cells: E. coli BL21(DE3), co-transformed with chaperone plasmid pG-KJE3
In words: GDP-MP enzymatic assay (malachite green) on purified hGDP-MP. The series is classed as biochemical. The following applies: Man-1-P 10-100 µM, GTP 100 µM. Here is the method: as §1, §2

Series [1] deals with L. donovani axenic amastigotes. In words: Antileishmanial evaluation on axenic amastigotes (resazurin). The series is classed as cell-based. As to conditions: 72 h treatment, 37 °C, read-out: IC50 (µM) ± SD L. donovani axenic amastigotes. The method, then: (§3) The evaluations of activity on axenic and intramacrophage amastigotes were adapted from the protocols previously described. Briefly, for the evaluation on axenic amastigotes, two fold serial dilutions of the compounds from a maximal concentration of 100 µM were performed in 100 µl of complete medium (see above) in 96-well microplates. Axenic amastigotes were then added to each well at a density of 10^6/ml in a 200 µl final volume. After 72 h of treatment at 37 °C for L. donovani or at 32 °C for L. mexicana with 5% CO2, 20 µl of resazurin (450 µM) was added to each well and further incubated in the dark for 24 h at 37 °C for L. donovani or at 32 °C for L. mexicana with 5% CO2. In living cells, resazurin is reduced in resorufin and this conversion is monitored by measuring OD570nm (resorufin) and OD600nm (resazurin; Lab systems Multiskan MS). The activity of the compounds was expressed as IC50. Miltefosine was used as the reference drug.
For orientation: Resazurin is reduced to fluorescent resorufin, in cell work by metabolically active cells.

For series [2], the system named is L. mexicana axenic amastigotes. The description is as above. The class given is cell-based. As to conditions: 72 h treatment, 32 °C, read-out: IC50 (µM) ± SD L. mexicana axenic amastigotes. The method, then:
as §3

Series [3] concerns L. donovani intramacrophage amastigotes in infected RAW.264.7 macrophages. Put plainly: Antileishmanial evaluation on intramacrophage amastigotes, RAW264.7 host. The series is classed as cell-based. As to conditions: for IC50: 48 h treatment, read-out: IC50 (µM) ± SD L. donovani infected RAW.264.7 macrophages. Here is the method: (§4) Concerning the evaluation on intramacrophage amastigotes, RAW 264.7 macrophages (from ATCC) and bone marrow derived macrophages (BMDM) were plated in 96-well microplates at a density of 2 × 10^4 cells per well and incubated for 24 h at 37 °C with 5% CO2 for RAW264.7 cells or at 37 °C with 7% CO2 for BMDM. Axenic amastigotes were differenciated as described above, centrifuged at 2,000 g for 10 min, resuspended in DMEM complete medium, and added to each well to reach a 16:1 parasite to macrophage ratio. After 24 h of infection at 37 °C with 5% CO2 for RAW264.7 cells or at 37 °C with 7% CO2 for BMDM, extracellular parasites were removed, and DMEM complete medium (100 µl) containing two fold serial dilutions of the compounds from a maximal concentration of 100 µM was added to each well. After 48 h of treatment, the medium was removed and replaced by DirectPCR Lysis Reagent (100 µl; Euromedex) before 3 freeze-thaw cycles at room temperature, addition of 50 µg/ml proteinase K, and a final incubation at 55 °C overnight to allow cell lysis. 10 µl of each cell extract was then added to 40 µl of DirectPCR Lysis reagent containing Sybr Green I (0.05%; Invitrogen). DNA fluorescence was monitored using Mastercycler® realplex (Eppendorf). The activity of the compounds was expressed as IC50. Miltefosine was used as the reference drug.

For series [4], the system named is L. donovani intramacrophage amastigotes in infected BMDM. Put plainly: Antileishmanial evaluation on intramacrophage amastigotes, BMDM host. The class given is cell-based. Here is the method:
as §4

For series [5], the system named is L. mexicana intramacrophage amastigotes in infected BMDM. In words: microbe, parasite or virus in culture. The class given is cell-based. The method, then: as §4
Series [6] deals with L. mexicana intramacrophage amastigotes in infected RAW.264.7 macrophages. In words: microbe, parasite or virus in culture. The series is classed as cell-based. The following applies: for IC50: 48 h treatment, read-out: IC50 (µM) ± SD L. mexicana infected RAW.264.7 macrophages. The method, then: as §4
Series [7] in a line: Cytotoxicity (resazurin). The class given is cell-based. The following applies: mouse, RAW264.7 macrophages; 48 h incubation; read-out: Cytotoxicity CC50 (µM) ± SD RAW264.7 macrophages. The method, then:
(§5) Cells were plated in 96-well microplates at a density of 2 × 10^4 cells per well. After an incubation of 24 h at 37 °C with 5% CO2 for RAW264.7 cells or at 37 °C with 7% CO2 for BMDM, the medium was removed in each well, and 100 µl of DMEM complete medium containing two fold serial dilutions of the compounds was added to each well. […] Cell viability was then monitored as described above.

Series [8] in a line: Cytotoxicity (resazurin). The series is classed as cell-based, Balb/c mice. As to conditions: Balb/c, mouse, bone marrow derived macrophages (BMDM); 48 h incubation; read-out: Cytotoxicity CC50 (µM) ± SD BMDM. The method, then: as §5
For series [9], the system named is inorganic pyrophosphatase. In words: Control for false positives on inorganic pyrophosphatase alone. The class given is biochemical. The following applies: compound at 100 µM, same conditions as the GDP-MP assay. The method, then: (§6) Enzyme activity was measured as described above in the presence of 100 µM of compounds and the percentage of inhibition was calculated in reference to untreated enzyme. As a control, compounds were evaluated in parallel in the same conditions on inorganic pyrophosphatase alone in order to discard false-positives. […] Furthermore, no effect was observed on the activity of the three purified GDP-MPs with 1% DMSO, corresponding to the maximal solvent concentration used at 100 µM of compound. Compounds presenting a minimum of 50% inhibition on a leishmanial GDP-MP were subsequently selected to determine their type of inhibition and their K i values. Inhibition data were fitted to competitive, non-competitive or uncompetitive models of enzyme inhibition by non linear least squares regression analysis using GraphPad Prism 6.0.

Series [10] deals with leishmanial GDP-MP (LdGDP-MP and/or LmGDP-MP). Put plainly: Screen of the 100 compound library at 100 µM on purified leishmanial GDP-MPs. The series is classed as biochemical, Leishmania. As to conditions: compound at 100 µM. The method, then:
GDP-MP catalyzes the following reaction: Man‐1‐P+GTP→GDP−Mannose+Pyrophosphate The reaction media were buffered at pH optima and contained optimal concentrations of Man-1-P, GTP, GDP-MP and Mg^2+ determined for each purified GDP-MP (Fig. 2d), supplemented with DTT (1 mM). Inorganic pyrophosphatase, which hydrolyses the inorganic pyrophosphates generated by the GDP-MPs in inorganic phosphates, was added at 0.1 U/ml (Sigma-Aldrich). Inorganic pyrophosphatase was added in excess to the reaction medium in order to minimize the probability that the putative inhibitors of GDP-MPs interfere with this enzyme. The reaction was initiated by the addition of GDP-MP, and was stopped after adding 100 µl of revelation buffer containing malachite green (0.03% w/v), ammonium molybdate (0.2% w/v) and Triton X-100 (0.05% v/v) in HCl (0.7 M) for 5 min at the optimal temperature. The quantity of inorganic phosphate generated, representing GDP-MP activity, was determined by measuring OD650nm (Lab systems Multiskan MS). The molar extinction coefficient ε of the end product detected was determined by measuring OD650nm with a range of inorganic phosphate concentrations diluted in the revelation buffer and was calculated at 27207 M^−1 cm^−1 (Supplementary Fig. S2). The kinetic constants K m, V m and k cat were determined by non linear regression using GraphPad Prism 6.0.
as §6

The next series has as its system L. major GDP-MP. Also on record: method as in PMID 20160053. As to conditions: high throughput screening; cited from earlier work.
Series [11] deals with L. major intramacrophage amastigotes. Also on record: method as in PMID 20160053. As to conditions: cited from earlier work.
[12] abbreviates: CC50 RAW264.7 / IC50 infected RAW264.7.

Where “and” joins values, the source holds several entries; their conditions need not be identical. Equal values may be shown once. Read-outs that look alike come from different tables or passages of the source. Some results are limits rather than exact numbers.

These results are taken from article PMC5429698, “Biochemical analysis of leishmanial and human GDP-Mannose Pyrophosphorylases and selection of inhibitors as new leads” (Scientific Reports, 2017).

As usually defined, the Ki is a measure of affinity in units of concentration, obtained from inhibition or displacement. Read a low Ki as a stronger hold on the target. Broadly, the IC50 is the concentration that gives 50% inhibition. Broadly, the CC50 is the concentration at which the toxic effect on the cells reaches its halfway point.

T1 sequence (Q9Y5P6 whole entry): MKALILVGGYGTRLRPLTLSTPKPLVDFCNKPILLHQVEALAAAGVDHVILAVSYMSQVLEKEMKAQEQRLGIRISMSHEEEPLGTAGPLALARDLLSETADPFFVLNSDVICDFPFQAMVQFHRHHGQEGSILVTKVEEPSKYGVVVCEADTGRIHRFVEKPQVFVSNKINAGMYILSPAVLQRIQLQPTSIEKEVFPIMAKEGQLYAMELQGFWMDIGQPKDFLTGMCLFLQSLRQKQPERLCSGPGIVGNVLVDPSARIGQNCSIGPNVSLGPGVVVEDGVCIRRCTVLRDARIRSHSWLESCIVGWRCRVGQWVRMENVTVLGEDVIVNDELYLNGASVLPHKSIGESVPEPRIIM
Sequence of LdGDP-MP (E9BG32 entry or part of it): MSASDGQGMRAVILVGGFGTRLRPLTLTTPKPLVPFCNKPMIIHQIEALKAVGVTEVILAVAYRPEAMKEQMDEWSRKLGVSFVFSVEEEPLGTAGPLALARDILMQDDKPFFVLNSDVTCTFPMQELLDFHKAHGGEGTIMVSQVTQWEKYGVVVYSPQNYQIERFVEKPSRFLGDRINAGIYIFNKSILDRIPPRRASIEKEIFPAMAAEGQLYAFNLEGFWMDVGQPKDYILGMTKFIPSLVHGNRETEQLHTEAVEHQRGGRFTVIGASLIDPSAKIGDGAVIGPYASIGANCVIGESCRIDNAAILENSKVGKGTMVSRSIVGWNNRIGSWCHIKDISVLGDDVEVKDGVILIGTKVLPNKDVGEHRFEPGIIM

In the case of `CC(C)(C)c1ccc(CN2CCN(c3ccnc4cc(Cl)ccc34)CC2)cc1` [compound 100, reference compound], the Ki at LdGDP-MP is 61.8 ± 16.3 µM; at hGDP-MP, 19.7 µM and ~20 µM. In addition, the IC50 was 30.7 ± 6.62 µM in series [1]; 30 to 50 µM in series [1] (Leishmania donovani, 72 h); 49.25 ± 0.26 µM in [2]; 30 to 50 µM in series [2] (Leishmania mexicana, 72 h); 19.5 ± 4.53 µM in [3]; 20 to 27.5 µM in [3] (Leishmania donovani, RAW264.7, 48 h). Besides, the IC50 was 12.2 ± 4.74 µM in series [4] (Leishmania donovani, BMDM, 48 h treatment, read-out: IC50 (µM) ± SD L. donovani infected BMDM); 12.1 ± 1.27 µM in series [5] (Leishmania mexicana, BMDM, 48 h, 48 h treatment, read-out: IC50 (µM) ± SD L. mexicana infected BMDM); 27.5 ± 2.23 µM in series [6]; 20 to 27.5 µM in series [6] (Leishmania mexicana, RAW264.7, 48 h); 0.58 µM in the series on L. major GDP-MP; 21.9 µM in [11]. The “Selectivity index (CC50/IC50) L. donovani RAW264.7 macrophages” value in series [3] (setting [12]) is reported as 3.2. Also, the “Selectivity index (CC50/IC50) L. donovani BMDM” value in series [4] (CC50 BMDM / IC50 infected BMDM) was 4.2. Also, the “Selectivity index (CC50/IC50) L. mexicana BMDM” value in series [5] (CC50 BMDM / IC50 infected BMDM) was determined as 4.3. The “Selectivity index (CC50/IC50) L. mexicana RAW264.7 macrophages” value in [6] (setting [12]) was 2.3. The half-maximal cytotoxic concentration (CC50) at 48 h in the series “Cytotoxicity (resazurin) [7]” worked out at 62.1 ± 7.39 µM; in the series “Cytotoxicity (resazurin) [8]” it was 51.4 ± 3.45 µM. Also, the “inhibition of inorganic pyrophosphatase” value in [9] is reported as below 5%. Further, the “enzyme inhibition on a leishmanial GDP-MP” value in [10] is “above 50%”.
